From US5763442A, “Anti-parasitic activity” (Universiteit Van Pretoria, priority 1995, dated 1998) come the findings set out here.

The subject of this assay is Plasmodium falciparum (Fab-9). Description: Microscopic parasitaemia, chloroquine sensitive strain Fab-9 (reversal of chloroquine resistance). As to conditions: for Percentage red blood cells infected with P. falciparum (Fab-9): 24 h. The assay is classed as cell-based. The procedure:
The activity of riminophenazines to reverse chloroquine resistance in Plasmodium falciparum was tested in the following manner:
A preliminary series of experiments were carried out using two laboratory strains of P. falciparum (RB-1 and Fab-9). These strains were obtained from the Medical Research Council, Durban, where they were characterised as being either mildly resistant or sensitive to chloroquine. The isolates were maintained in suspension culture in known manner (as described by Freese J A, Markus M B and Golenser J, 1991; Bulletin of the World Health Organization 69: 707-712).
Infected erythrocytes were diluted with human O-positive red blood cells to a parasitaemia of 0.2-0.9% and suspended to 3% in RPMI containing 44 mg/l hypoxanthine and 10% human type O serum. Aliquots (100 μl) of the suspension were dispensed into the wells of 96-well microtitre plates. To these suspensions 100 μl of the medium were added containing either chloroquine or B669 alone or in combination. The final drug concentrations were 31, 62, 125, 250 500 and 1000 nM for chloroquine and 0.125, 0.25, 0.5 and 1.0 μg/ml for B669. Relevant solvent controls were included. The plates were incubated for 24 hours at 38° C. in a desiccator gassed with 5% O2, 5% CO2 and 90% N2. Thin blood smears were prepared from each well, stained with Giemsa stain and the percentage of red blood cells infected by at least one parasite determined microscopically.

Consider `c1ccc(Nc2cc3nc4ccccc4n(-c4ccccc4)c-3cc2=NC2CCCCC2)cc1` [Compound B669, N,5-bis(phenyl)-3,5-dihydro-3-(cyclohexylimino)-2-phenazinamine], for which the “Percentage red blood cells infected with P. falciparum (Fab-9)” value (B669 0.125 μg/ml + chloroquine 31 nM) was 3.9%; the “Percentage red blood cells infected with P. falciparum (Fab-9)” value (B669 0.125 μg/ml + chloroquine 500 nM) stood at 0.9%; the “Percentage red blood cells infected with P. falciparum (Fab-9)” value (B669 0.125 μg/ml alone) is 4.0%; the “Percentage red blood cells infected with P. falciparum (Fab-9)” value (B669 0.25 μg/ml + chloroquine 31 nM) was found to be 3.1%; the “Percentage red blood cells infected with P. falciparum (Fab-9)” value (B669 0.25 μg/ml + chloroquine 125 nM) worked out at 2.9%; the “Percentage red blood cells infected with P. falciparum (Fab-9)” value (B669 0.25 μg/ml + chloroquine 500 nM, *parasites morphologically abnormal) was 0.1%. In addition, the “Percentage red blood cells infected with P. falciparum (Fab-9)” value reads like this: (B669 0.25 μg/ml alone) 4.4%; (B669 0.5 μg/ml + chloroquine 31 nM, *parasites morphologically abnormal) 2.7%; (B669 0.5 μg/ml + chloroquine 125 nM) 3.0%; (B669 0.5 μg/ml + chloroquine 500 nM, *parasites morphologically abnormal) 0.1%; (B669 0.5 μg/ml alone) 3.0%; (B669 1.0 μg/ml + chloroquine 31 nM) 2.9%. Further, the “Percentage red blood cells infected with P. falciparum (Fab-9)” value amounted to 0.9% (B669 1.0 μg/ml + chloroquine 125 nM); 0.1% (B669 1.0 μg/ml + chloroquine 500 nM, *parasites morphologically abnormal); 4.1% (B669 1.0 μg/ml alone, *parasites morphologically abnormal). Besides, the “direct effect on parasite morphology” value (B669 alone 1.0 μg/ml) is reported as “morphological deterioration of the parasites was observed”. Also, the “percentage parasitaemia versus untreated control systems” value (B669 alone 1.0 μg/ml) was “did not differ from the untreated control systems”. Where the note is “microscopy”, the “effect on sensitivity of chloroquine sensitive strain to chloroquine” value is “did not increase the sensitivity”.
